# Experimental data as given in ChEMBL document CHEMBL3132829, “Optimization of triazole-based TGR5 agonists towards orally available agents” (Medchemcomm, 2013).
# Experiments:
# Assay type in all cases: ADME, organism-based, Canis lupus familiaris
# [1] = Volume of distribution at steady state in beagle dog at 1 mg/kg, iv and 3 mg/kg, po by LC-MS/MS analysis; settings: in vivo, read-out: Vdss
# [2] = Tmax in beagle dog at 1 mg/kg, iv and 3 mg/kg, po by LC-MS/MS analysis; settings: in vivo
# [3] = Oral bioavailability in beagle dog at 3 mg/kg by LC-MS/MS analysis; settings: in vivo
# [4] = Half life in beagle dog at 1 mg/kg, iv and 3 mg/kg, po by LC-MS/MS analysis; settings: in vivo
# [5] = Cmax in beagle dog at 1 mg/kg, iv and 3 mg/kg, po by LC-MS/MS analysis; settings: in vivo
smiles,measurement,setting,value
COc1cccc(-n2nnc(C3CC3)c2C(=O)N(C)c2ccc(C#N)cc2)c1,Vd,[1],4.6 L/kg
same,Tmax,[2],15 min
same,bioavailability,[3],17%
same,half-life,[4],282 min
same,Cmax,[5],510 nM
